Assay results reported in ChEMBL document CHEMBL1201862, “PubChem BioAssay data set” (2004).
The source made the active and inactive calls.

What was measured:
[1] = biological target: T1, Calpain-2 catalytic subunit (Sus scrofa, UniProt P43367); assay: pig calpain II inhibitor potency, dose response, biochemical, fluorogenic peptide substrate (AID 1420); type: functional
T1 sequence (P43367 whole entry): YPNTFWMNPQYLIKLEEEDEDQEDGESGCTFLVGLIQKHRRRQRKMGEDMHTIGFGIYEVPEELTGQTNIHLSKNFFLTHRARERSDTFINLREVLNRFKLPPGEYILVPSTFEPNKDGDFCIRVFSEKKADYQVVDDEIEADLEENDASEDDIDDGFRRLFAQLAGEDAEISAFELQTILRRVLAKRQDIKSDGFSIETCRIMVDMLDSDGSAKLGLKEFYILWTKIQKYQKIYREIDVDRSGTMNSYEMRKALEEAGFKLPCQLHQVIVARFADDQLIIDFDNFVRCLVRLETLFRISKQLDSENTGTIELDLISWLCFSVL

[2] = P. falciparum late gametocyte killing, dose response, luminescence (AID 1117278); type: functional, cell-based;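 also: gametocytes exposed to compound for 24 hours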
[3] = Jurkat T cell cytotoxicity, dose response, cytotoxicity control for P. falciparum gametocyte viability project, luminescence (AID 1117277); type: functional, cell-based;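 also: potency reflects loss of cellular ATP meaning fewer viable cells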
[4] = A549 cell cytotoxicity, dose response, cytotoxicity control, plate reader, dry powder, set 7 (AID 743318); type: functional, cell-based
[5] = biological target: Endoplasmic reticulum aminopeptidase 2 (Homo sapiens, UniProt Q6P179); assay: ERAP2 aminopeptidase inhibitors, dose response, selectivity assay for selective ERAP1 modulator project, biochemical, plate reader, dry powder, set 2 (AID 1117289); type: functional
Endoplasmic reticulum aminopeptidase 2, sequence (Q6P179 whole entry): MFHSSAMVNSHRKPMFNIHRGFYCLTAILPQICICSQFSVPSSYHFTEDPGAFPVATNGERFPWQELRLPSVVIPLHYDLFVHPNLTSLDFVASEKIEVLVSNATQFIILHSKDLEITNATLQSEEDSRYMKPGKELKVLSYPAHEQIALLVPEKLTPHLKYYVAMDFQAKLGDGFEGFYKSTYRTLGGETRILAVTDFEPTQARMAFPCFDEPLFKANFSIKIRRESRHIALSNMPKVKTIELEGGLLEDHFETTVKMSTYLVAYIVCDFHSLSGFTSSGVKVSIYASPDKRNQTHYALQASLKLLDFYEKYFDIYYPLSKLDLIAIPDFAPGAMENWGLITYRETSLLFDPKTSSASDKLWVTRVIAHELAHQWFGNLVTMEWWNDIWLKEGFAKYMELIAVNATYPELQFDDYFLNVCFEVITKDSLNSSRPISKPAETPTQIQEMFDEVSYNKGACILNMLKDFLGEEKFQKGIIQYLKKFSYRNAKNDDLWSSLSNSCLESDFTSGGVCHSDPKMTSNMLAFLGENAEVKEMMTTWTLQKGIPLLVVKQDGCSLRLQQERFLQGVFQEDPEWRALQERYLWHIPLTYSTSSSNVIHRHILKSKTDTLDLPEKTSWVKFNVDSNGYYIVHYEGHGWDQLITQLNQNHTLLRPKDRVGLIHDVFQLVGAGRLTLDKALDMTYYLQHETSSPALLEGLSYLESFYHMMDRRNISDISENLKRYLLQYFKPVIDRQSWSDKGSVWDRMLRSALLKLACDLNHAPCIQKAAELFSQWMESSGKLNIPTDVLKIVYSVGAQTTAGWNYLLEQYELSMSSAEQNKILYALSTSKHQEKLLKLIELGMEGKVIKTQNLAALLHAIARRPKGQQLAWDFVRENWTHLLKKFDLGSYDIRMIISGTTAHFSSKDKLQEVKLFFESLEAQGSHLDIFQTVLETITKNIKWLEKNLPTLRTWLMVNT

[6] = biological target: Leucyl-cystinyl aminopeptidase (Mus musculus, UniProt Q8C129); assay: IRAP enzyme inhibitors, dose response, selectivity assay for ERAP1 modulator project, biochemical, dry powder samples, set 3 (AID 1117288); type: functional
Leucyl-cystinyl aminopeptidase, sequence (Q8C129 whole entry): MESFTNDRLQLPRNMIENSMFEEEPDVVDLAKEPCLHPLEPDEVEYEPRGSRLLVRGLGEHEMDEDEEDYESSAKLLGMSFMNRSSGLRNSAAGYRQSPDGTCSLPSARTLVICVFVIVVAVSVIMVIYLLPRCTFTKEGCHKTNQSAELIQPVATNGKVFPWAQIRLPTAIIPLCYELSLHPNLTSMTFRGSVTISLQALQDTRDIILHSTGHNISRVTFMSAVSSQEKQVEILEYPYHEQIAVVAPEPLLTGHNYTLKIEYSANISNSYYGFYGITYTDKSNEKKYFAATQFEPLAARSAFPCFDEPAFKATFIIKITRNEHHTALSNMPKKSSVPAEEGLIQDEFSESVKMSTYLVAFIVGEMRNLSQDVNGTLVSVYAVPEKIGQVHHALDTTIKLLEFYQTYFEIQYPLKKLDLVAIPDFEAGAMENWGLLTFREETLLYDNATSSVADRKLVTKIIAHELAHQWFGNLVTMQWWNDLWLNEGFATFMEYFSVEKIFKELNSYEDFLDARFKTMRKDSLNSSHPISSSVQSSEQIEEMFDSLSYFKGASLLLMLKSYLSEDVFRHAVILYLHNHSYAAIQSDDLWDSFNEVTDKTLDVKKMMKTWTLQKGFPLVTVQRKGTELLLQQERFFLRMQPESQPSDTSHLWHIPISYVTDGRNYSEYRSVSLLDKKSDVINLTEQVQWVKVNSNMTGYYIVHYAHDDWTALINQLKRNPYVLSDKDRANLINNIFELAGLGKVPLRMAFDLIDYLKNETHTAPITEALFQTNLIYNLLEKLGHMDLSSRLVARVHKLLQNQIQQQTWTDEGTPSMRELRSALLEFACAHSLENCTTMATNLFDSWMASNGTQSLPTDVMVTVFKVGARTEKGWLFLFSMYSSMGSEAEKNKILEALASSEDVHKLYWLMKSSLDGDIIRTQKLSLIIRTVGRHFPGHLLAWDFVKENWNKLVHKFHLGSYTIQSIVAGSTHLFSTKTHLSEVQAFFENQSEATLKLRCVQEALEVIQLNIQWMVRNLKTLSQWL

[7] = inhibitors of intracellular T. cruzi replication, confirmation, NIH3T3 host cells, beta-gal luminescence (AID 2044); type: functional, cell-based;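 also: intracellular parasites grown in NIH/3T3 mouse fibroblasts as host cells; luminescent beta-galactosidase reporter signal from transgenic T. cruzi replicating inside host cells; inhibitors lower the luminescence signal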
[8] = cytotoxicity toward NIH3T3 fibroblasts, dose response, counter-screen, cell-based, ATP luminescence, mouse fibroblasts (AID 2010); type: functional; conditions: nih3t3;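 also: cells exposed to compound for about 90 hours before reading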
INS1 = assay: beta cell apoptosis inhibitors, cytokine rescue, dose response, luminescence, retest (AID 449756); type: functional, cell-based; conditions: Rattus norvegicus;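 also: cell death triggered by IL-1 beta plus TNF-alpha plus IFN-gamma mixture; protective hits raise ATP signal compared with cytokine alone wells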
Vero = assay: cells; type: functional; conditions: Chlorocebus sabaeus
[9] = nonselective inhibitors of cellular cAMP signaling, dose response, counter-screen for MC4R biased antagonist project, cell-based, TR-FRET cAMP detection (AID 602305); type: functional;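 also: U2OS cells stimulated with forskolin near its EC80 as the cAMP inducer; potency is for inhibition of forskolin-stimulated cAMP signaling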
[10] = PAX2 cell-based inhibition, dose response, selectivity assay for PAX8 inhibitor project, plate reader, dry powder samples (AID 743048); type: functional;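 also: HEK293 cells carrying a WT1 promoter luciferase reporter driven by expressed Pax2; potency is for inhibition of Pax2 driven reporter signal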
[11] = cytotoxicity in COV362 ovarian cancer cells, dose response, cytotoxicity control for PAX8 inhibitor project, cell-based, plate reader, dry powder, SA12 (AID 743144); type: functional
[12] = A2780 ovarian cancer cell cytotoxicity, dose response, cytotoxicity control, plate reader, dry powder samples (AID 743046); type: functional, cell-based
[13] = NIH:OVCAR-3 ovarian cancer cell cytotoxicity, dose response, PAX8 inhibitor project, plate reader, dry powder samples (AID 743044); type: functional, cell-based
[14] = PAX5 activity inhibitors, dose response, selectivity assay for PAX8 inhibitor project, cell-based, plate reader, dry powder samples (AID 743047); type: functional;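 also: HEK293 cells carrying a Pax5 driven CD19 promoter luciferase reporter; potency of inhibitors that lower reporter luminescence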
[15] = IGROV1 ovarian cancer cell cytotoxicity, dose response, PAX8 inhibitor project, plate reader, dry powder samples (AID 743043); type: functional, cell-based; conditions: IGROV-1
[16] = cytotoxicity in OVCAR4 cells, dose response, cytotoxicity control for PAX8 inhibitor project, cell-based, plate reader, dry powder, SA11 (AID 743150); type: functional; conditions: OVCAR-4
[17] = cytotoxicity in COV434 cells, dose response, cytotoxicity control for PAX8 inhibitor project, cell-based, plate reader, dry powder, SA7 (AID 743145); type: functional
[18] = cytotoxicity in OV-90 ovarian cancer cells, dose response, PAX8 inhibitor project, cell-based, plate reader, dry powder, SA8 (AID 743149); type: functional
[19] = cytotoxicity dependent on PAX8, dose response, cell-based, plate reader, dry powder (AID 743049); type: functional
[20] = HeLa 2N DNA content increase, dose response, cell-based, IC50 (AID 1117349); type: functional
[21] = Concentration-dependent survival of SW480 colon cancer line, luminescence detection with CellTiter-Glo, half-maximal inhibitory concentration (AID 1117338); type: functional
[22] = Dose-response inhibition of insulin secretion in a rat insulinoma line at 5 mM glucose (AID 1117331); type: functional, cell-based; conditions: INS-1E
[23] = RKO cell viability reduction, dose response, CellTiter-Glo luminescence (AID 1117322); type: functional
[24] = cytotoxicity toward HCT116 cells – cell-based, CellTiter-Glo luminescence, IC50, dose response (AID 1117332); type: functional; conditions: HCT-116
[25] = SNU-C1 cell viability reduction, dose response, CellTiter-Glo luminescence (AID 1117323); type: functional, cell-based
[26] = half-maximal inhibitory concentration for glucagon-like peptide-1 release, STC-1 cell line, dose-response (AID 1117345); type: functional, cell-based
[27] = cytotoxicity toward Colo320 cells – cell-based, CellTiter-Glo luminescence, IC50, dose response (AID 1117334); type: functional; conditions: COLO 320
[28] = HeLa 4N DNA content increase, dose response, cell-based, IC50 (AID 1117351); type: functional
[29] = cytotoxicity toward HT-29 cells – cell-based, CellTiter-Glo luminescence, IC50, dose response (AID 1117330); type: functional
[30] = CellTiter-Glo luminescent dose response of DLD-1 viability loss (AID 1117352); type: functional
[31] = Glucagon-like peptide 1 release potency, NCI-H716 cell line, dose-response, half-maximal inhibitory concentration (AID 1117344); type: functional, cell-based

CCc1ccc2nc(NC(=O)Cn3cnc4ccccc4c3=O)sc2c1
IC50 [1]: 11.7 µM (not active) | IC50 [2]: > 109 µM (inactive) | IC50 [3]: > 83.3 µM (inactive)

Cc1ccc(C(C)C)c(OCCn2c(=S)[nH]c3cc(F)ccc32)c1
AC50 [4]: 26.9 µM (active)

COc1ccc(C(=O)O)cc1S(=O)(=O)Nc1ccc(C(F)(F)F)cc1N1CCCCC1
AC50 [5]: 12.5 µM (active) | AC50 [6]: 77 µM (active)

N=C(NCCCCCCNC(=N)NC(=N)Nc1ccc(Cl)cc1)NC(=N)Nc1ccc(Cl)cc1 [CHLORHEXIDINE]
EC50 [7]: 0.178 µM (active) | EC50 [8]: 6.74 µM (active) | AC50 (INS1): 4.67 µM (active) | CC50 (Vero): 8.43 µM (active) | IC50 [9]: 31.8 µM (inactive) | AC50 [10]: 13.6 µM (active) | AC50 [11]: 21.6 µM (active) | AC50 [12]: 13.9 µM (active) | AC50 [13]: 13.8 µM (active) | AC50 [14]: 16.4 µM (active) | AC50 [15]: 15.6 µM (active) | AC50 [16]: 33.9 µM (active) | AC50 [17]: 12.2 µM (active) | AC50 [18]: 20 µM (active) | AC50 [19]: 12.5 µM (active) | IC50 [20]: > 10 µM (inactive) | IC50 [21]: 5.67 µM (inactive) | IC50 [22]: 25.2 µM (inactive) | IC50 [23]: 4.58 µM (active) | IC50 [24]: 4.39 µM (active) | IC50 [25]: 0.439 µM (active) | IC50 [26]: 10.3 µM (inactive) | IC50 [27]: 5.16 µM (inactive) | IC50 [28]: > 10 µM (inactive) | IC50 [29]: 3.79 µM (active) | IC50 [30]: 2.8 µM (active) | IC50 [31]: 26.2 µM (inactive)
